The values below come from the supplement of paper PMC10307832.

Experiment in all cases: relative viability (nuclei count vs DMSO), 5 days (fraction); higher = more cells survive
Compound in the test “AGI-6780 + OSI-027”: O=C(Nc1cccc(C(F)(F)F)c1)Nc1cc(S(=O)(=O)NC2CC2)ccc1-c1ccsc1 [AGI-6780] + COc1cccc2cc(-c3nc([C@H]4CC[C@H](C(=O)O)CC4)n4ncnc(N)c34)[nH]c12 [OSI-027] (partner 0.5 µM)
The method, boiled down: (§1)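 For relative viability, nuclei counts in treated wells were divided by those in vehicle wells. Lung cancer cell lines had been pin-tool dosed in 1536-well plates the day after seeding and cultured for 5 days, then fixed and stained in one step (final 0.05% Triton X-100, 1% formaldehyde, 1 ug/ml Hoechst) and imaged at 4×. Doses were one drug alone or a fixed anchor-drug dose plus five library-drug doses (not always all listed) in √10 steps, and values are duplicate-plate medians.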

Compound in the test “AGI-6780 + Trametinib”: O=C(Nc1cccc(C(F)(F)F)c1)Nc1cc(S(=O)(=O)NC2CC2)ccc1-c1ccsc1 [AGI-6780] + CC(=O)Nc1cccc(-n2c(=O)n(C3CC3)c(=O)c3c(Nc4ccc(I)cc4F)n(C)c(=O)c(C)c32)c1 [Trametinib] (partner 0.02 µM)
Put shortly: as §1

Compound in the test “AGI-6780 + Linsitinib”: O=C(Nc1cccc(C(F)(F)F)c1)Nc1cc(S(=O)(=O)NC2CC2)ccc1-c1ccsc1 [AGI-6780] + C[C@]1(O)C[C@@H](c2nc(-c3ccc4ccc(-c5ccccc5)nc4c3)c3c(N)nccn32)C1 [Linsitinib] (partner 1 µM)
Put shortly:
as §1

Compound in the test “AGI-6780 + Lapatinib”: O=C(Nc1cccc(C(F)(F)F)c1)Nc1cc(S(=O)(=O)NC2CC2)ccc1-c1ccsc1 [AGI-6780] + CS(=O)(=O)CCNCc1ccc(-c2ccc3ncnc(Nc4ccc(OCc5cccc(F)c5)c(Cl)c4)c3c2)o1 [Lapatinib] (partner 2 µM)
The method, boiled down:
as §1

In the case of PC-3 [JPC-3], the relative viability with AGI-6780 + OSI-027 (first compound 0.08 µM) amounted to 0.776; in the test with AGI-6780 + OSI-027 (first compound 0.253 µM), 0.748; with AGI-6780 + OSI-027 (first compound 0.8 µM) it was 0.781; with AGI-6780 + OSI-027 (first compound 2.53 µM), 0.691; with AGI-6780 + OSI-027 (first compound 8 µM) it was 0.76; in the test with AGI-6780 + Trametinib (first compound 0.253 µM), 0.582. Also, the relative viability in the test with AGI-6780 + Trametinib (first compound 0.8 µM) stood at 0.701; with AGI-6780 + Trametinib (first compound 2.53 µM), 0.744; with AGI-6780 + Trametinib (first compound 8 µM), 0.626; with AGI-6780 + Linsitinib (first compound 0.08 µM), 0.995; with AGI-6780 + Linsitinib (first compound 0.253 µM), 0.952; with AGI-6780 + Linsitinib (first compound 0.8 µM), 0.904. For the same cell line, the relative viability came to 0.926 with AGI-6780 + Linsitinib (first compound 2.53 µM); 0.953 in the test with AGI-6780 + Linsitinib (first compound 8 µM); 0.467 in the test with AGI-6780 + Lapatinib (first compound 0.08 µM); 0.513 with AGI-6780 + Lapatinib (first compound 0.253 µM); 0.451 with AGI-6780 + Lapatinib (first compound 0.8 µM); 0.416 with AGI-6780 + Lapatinib (first compound 2.53 µM). Moreover, in the test with AGI-6780 + Lapatinib (first compound 8 µM), the relative viability was determined as 0.48.

Turning to PC-14, the relative viability was 0.833 in the test with AGI-6780 + OSI-027 (first compound 0.08 µM); 0.822 with AGI-6780 + OSI-027 (first compound 0.253 µM); 0.814 with AGI-6780 + OSI-027 (first compound 0.8 µM); 0.678 with AGI-6780 + OSI-027 (first compound 2.53 µM); 0.922 with AGI-6780 + OSI-027 (first compound 8 µM); 0.802 with AGI-6780 + Trametinib (first compound 0.08 µM). The relative viability in the test with AGI-6780 + Trametinib (first compound 0.253 µM) amounted to 0.764; with AGI-6780 + Trametinib (first compound 0.8 µM), 1.02; with AGI-6780 + Trametinib (first compound 2.53 µM), 0.731; in the test with AGI-6780 + Trametinib (first compound 8 µM), 0.752; with AGI-6780 + Linsitinib (first compound 0.08 µM), 0.983; in the test with AGI-6780 + Linsitinib (first compound 0.253 µM) it was 0.925. Also, the relative viability in the test with AGI-6780 + Linsitinib (first compound 0.8 µM) turned out to be 0.832; with AGI-6780 + Linsitinib (first compound 2.53 µM), 0.903; in the test with AGI-6780 + Linsitinib (first compound 8 µM) it was 0.937; with AGI-6780 + Lapatinib (first compound 0.08 µM) it was 0.312; in the test with AGI-6780 + Lapatinib (first compound 0.253 µM) it was 0.348; with AGI-6780 + Lapatinib (first compound 0.8 µM), 0.312. Also, the figures for the relative viability with AGI-6780 + Lapatinib (first compound 2.53 µM) and with AGI-6780 + Lapatinib (first compound 8 µM) were 0.314 and 0.291, respectively.

As for RERF-LC-KJ, the relative viability came to 0.579 with AGI-6780 + OSI-027 (first compound 0.08 µM); 0.719 with AGI-6780 + OSI-027 (first compound 0.253 µM); 0.614 with AGI-6780 + OSI-027 (first compound 0.8 µM); 0.465 with AGI-6780 + OSI-027 (first compound 2.53 µM); 0.454 with AGI-6780 + OSI-027 (first compound 8 µM); 0.859 in the test with AGI-6780 + Trametinib (first compound 0.08 µM). Besides, the relative viability came to 0.862 with AGI-6780 + Trametinib (first compound 0.253 µM); 0.828 with AGI-6780 + Trametinib (first compound 0.8 µM); 0.674 in the test with AGI-6780 + Trametinib (first compound 2.53 µM); 0.774 with AGI-6780 + Trametinib (first compound 8 µM); 0.863 with AGI-6780 + Linsitinib (first compound 0.08 µM); 1 with AGI-6780 + Linsitinib (first compound 0.253 µM). Also, the relative viability in the test with AGI-6780 + Linsitinib (first compound 0.8 µM) turned out to be 0.837; with AGI-6780 + Linsitinib (first compound 2.53 µM) it was 0.822; with AGI-6780 + Linsitinib (first compound 8 µM), 0.845; in the test with AGI-6780 + Lapatinib (first compound 0.08 µM), 0.828; with AGI-6780 + Lapatinib (first compound 0.253 µM), 0.923; in the test with AGI-6780 + Lapatinib (first compound 0.8 µM) it was 0.788. For the same cell line, the relative viability with AGI-6780 + Lapatinib (first compound 2.53 µM) turned out to be 0.675; with AGI-6780 + Lapatinib (first compound 8 µM), 0.859.

SK-LU-1: the relative viability stood at 0.348 with AGI-6780 + OSI-027 (first compound 0.08 µM); 0.406 with AGI-6780 + OSI-027 (first compound 0.253 µM); 0.312 with AGI-6780 + OSI-027 (first compound 2.53 µM); 0.359 in the test with AGI-6780 + OSI-027 (first compound 8 µM); 0.614 with AGI-6780 + Trametinib (first compound 0.08 µM); 0.537 with AGI-6780 + Trametinib (first compound 0.253 µM). Besides, the relative viability in the test with AGI-6780 + Trametinib (first compound 0.8 µM) was 0.368; with AGI-6780 + Trametinib (first compound 2.53 µM) it was 0.651; in the test with AGI-6780 + Trametinib (first compound 8 µM), 0.497; with AGI-6780 + Linsitinib (first compound 0.08 µM) it was 1.11; with AGI-6780 + Linsitinib (first compound 0.253 µM), 0.976; in the test with AGI-6780 + Linsitinib (first compound 0.8 µM) it was 0.76. The relative viability stood at 0.917 with AGI-6780 + Linsitinib (first compound 2.53 µM); 1.16 in the test with AGI-6780 + Linsitinib (first compound 8 µM); 0.928 with AGI-6780 + Lapatinib (first compound 0.08 µM); 0.857 with AGI-6780 + Lapatinib (first compound 0.253 µM); 0.683 with AGI-6780 + Lapatinib (first compound 0.8 µM); 0.863 in the test with AGI-6780 + Lapatinib (first compound 2.53 µM). Besides, the relative viability with AGI-6780 + Lapatinib (first compound 8 µM) was found to be 1.14.

Consider SK-MES-1, for which the relative viability with AGI-6780 + OSI-027 (first compound 0.08 µM) came to 0.635; with AGI-6780 + OSI-027 (first compound 0.253 µM), 0.662; with AGI-6780 + OSI-027 (first compound 0.8 µM) it was 0.561; in the test with AGI-6780 + OSI-027 (first compound 2.53 µM), 0.448; with AGI-6780 + OSI-027 (first compound 8 µM), 0.509; with AGI-6780 + Trametinib (first compound 0.08 µM) it was 0.549. For the same cell line, the relative viability was found to be 0.577 in the test with AGI-6780 + Trametinib (first compound 0.253 µM); 0.509 with AGI-6780 + Trametinib (first compound 0.8 µM); 0.532 with AGI-6780 + Trametinib (first compound 2.53 µM); 0.493 with AGI-6780 + Trametinib (first compound 8 µM); 1.08 with AGI-6780 + Linsitinib (first compound 0.08 µM); 1.06 with AGI-6780 + Linsitinib (first compound 0.253 µM). Moreover, the relative viability was found to be 0.92 with AGI-6780 + Linsitinib (first compound 0.8 µM); 0.984 in the test with AGI-6780 + Linsitinib (first compound 2.53 µM); 1.09 with AGI-6780 + Linsitinib (first compound 8 µM); 0.482 with AGI-6780 + Lapatinib (first compound 0.08 µM); 0.524 with AGI-6780 + Lapatinib (first compound 0.253 µM); 0.441 in the test with AGI-6780 + Lapatinib (first compound 0.8 µM). The results for the relative viability with AGI-6780 + Lapatinib (first compound 2.53 µM) and in the test with AGI-6780 + Lapatinib (first compound 8 µM) were 0.407 and 0.427, respectively.

Turning to SW 1573, the relative viability in the test with AGI-6780 + OSI-027 (first compound 0.08 µM) came out at 0.685; with AGI-6780 + OSI-027 (first compound 0.253 µM) it was 0.656; with AGI-6780 + OSI-027 (first compound 0.8 µM), 0.801; with AGI-6780 + OSI-027 (first compound 8 µM) it was 0.562; in the test with AGI-6780 + Trametinib (first compound 0.08 µM) it was 0.567; with AGI-6780 + Trametinib (first compound 0.253 µM), 0.533. The relative viability in the test with AGI-6780 + Trametinib (first compound 0.8 µM) came out at 0.489; in the test with AGI-6780 + Trametinib (first compound 8 µM) it was 0.602; with AGI-6780 + Linsitinib (first compound 0.08 µM), 0.818; in the test with AGI-6780 + Linsitinib (first compound 0.253 µM), 0.911; with AGI-6780 + Linsitinib (first compound 0.8 µM) it was 0.868; with AGI-6780 + Linsitinib (first compound 2.53 µM), 0.652. For the same cell line, the relative viability amounted to 0.831 with AGI-6780 + Linsitinib (first compound 8 µM); 1.3 with AGI-6780 + Lapatinib (first compound 0.08 µM); 1.29 in the test with AGI-6780 + Lapatinib (first compound 0.253 µM); 1.08 in the test with AGI-6780 + Lapatinib (first compound 0.8 µM); 0.957 with AGI-6780 + Lapatinib (first compound 2.53 µM); 1.06 with AGI-6780 + Lapatinib (first compound 8 µM).

In the case of UMC-11, the relative viability in the test with AGI-6780 + OSI-027 (first compound 0.08 µM) came out at 0.488; with AGI-6780 + OSI-027 (first compound 0.253 µM), 0.452; with AGI-6780 + OSI-027 (first compound 0.8 µM), 0.473; with AGI-6780 + OSI-027 (first compound 8 µM), 0.509; in the test with AGI-6780 + Trametinib (first compound 0.08 µM), 0.657; in the test with AGI-6780 + Trametinib (first compound 0.253 µM), 0.708. Also, the relative viability with AGI-6780 + Trametinib (first compound 0.8 µM) is 0.812; with AGI-6780 + Trametinib (first compound 8 µM), 0.902; in the test with AGI-6780 + Linsitinib (first compound 0.08 µM) it was 0.868; with AGI-6780 + Linsitinib (first compound 0.253 µM) it was 0.968; with AGI-6780 + Linsitinib (first compound 0.8 µM) it was 1.08; with AGI-6780 + Linsitinib (first compound 8 µM), 0.987. Further, the relative viability was determined as 1.03 with AGI-6780 + Lapatinib (first compound 0.08 µM), 0.92 with AGI-6780 + Lapatinib (first compound 0.253 µM), 1.09 in the test with AGI-6780 + Lapatinib (first compound 0.8 µM) and 1.16 with AGI-6780 + Lapatinib (first compound 8 µM).
